# Like-named read-outs stand apart in the source and are kept apart here.
# Tests used:
# [1] = biological target: FGFR1 (Homo sapiens (Human), UniProt P11362); test: Kinase assay, binding constants (Kd), kinase-tagged T7 phage, qPCR
# In short: (§1)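 Using T7 phage lysates from BL21-derived E. coli, compounds at 0.9% final DMSO competed for kinase binding to ligand-bearing magnetic beads. After elution, qPCR measured remaining kinase, and Kds were fitted by non-linear least squares with the Hill slope fixed at −1.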
# [2] = biological target: FGFR4 (Homo sapiens (Human), UniProt P22455); test: as above
# In short: as §1
# [3] = biological target: FGFR2 (Homo sapiens (Human), UniProt P21802); test: as above
# In short: as §1
# [4] = biological target: FGFR3 (Homo sapiens (Human), UniProt P22607); test: as above
# In short: as §1
# [5] = biological target: FGFR3 (V555M) (Homo sapiens (Human), UniProt P22607, V555M); test: as above; details: V555M mutant
# In short: as §1
# [6] = tested on: KG-1 cells (FGFR1-fusion); test: KG-1 cancer cell line cell viability assay (CellTiter-Glo 2.0); type: cell-based; details: Homo sapiens, 72 hours, Cell Titer Glo 2.0
# Description: (§2) Experimental Purpose: To detect the change of intracellular ATP by Cell Titer-Glo® and to evaluate the inhibitory effect of the compounds on cancer cell lines by determining the in vitro IC50 value of the compounds.
# (§3) Cell Titer-Glo® 2.0 Luminescent cell viability assay reagent was purchased from Promega (Madison, WI). RT112/84 and KG-1 cell lines were purchased from American Type Culture Collection (Manassas, VA). UM-UC-14 cell line was purchased from Sigma (St. Louis, MO). RT112/84, UM-UC-14, and KG-1 cells were cultured in RPMI1640 media supplemented with 10% fetal bovine serum. Cultures were maintained at 37° C. in a humidified atmosphere of 5% C02 and 95% air.
# (§4) Cell Viability Assay Procedure: Cells were plated in 96-well clear bottom/white plates (Corning #3903) at 10,000 cells/well in 100 μl of media, incubated overnight. The next day, test compound DMSO stock solutions were made at 10 mM and 2 μM final concentration. Compounds were then added to cells in a 9-dose, 10-fold dilution series starting at 30 μM with an HP 300e Digital Dispenser (each dose was applied in triplicate). DMSO was backfilled to each well up to 301 nL total volume of test compound+DMSO, and a total of 301 nL DMSO was added to a control/no test compound well in triplicate. The cells in cell culture plates were incubated with the compounds at 37° C. and 5% C02 for 72 hours. Then 50 μl of Cell Titer Glo 2.0 reagent was added to each well of the cell culture plates. The contents were covered from light and mixed on an orbital shaker at room temperature for 10 min. Luminescence was recorded by a Synergy H1 Microplate Reader (Biotek, Winooski, VT). Cells were assessed as a percentage of DMSO only treated control cells. Curves were plotted and IC50 values were calculated using the GraphPad Prism 8 program based on a sigmoidal dose-response equation (4 parameter).
# [7] = biological target: FGFR3-BAIAP2L1 Ba/F3 cells (Homo sapiens, UniProt P22607); test: Ba/F3 cell viability assay (CellTiter-Glo 2.0), FGFR3-BAIAP2L1 Ba/F3; type: cell-based; details: for Ba/F3 FGFR1/FGFR3 Selectivity: FGFR3 > FGFR1 selectivity ratio in Ba/F3 FGFR fusion cell based assays; for IC50: read-out: Ba/F3 Cells FGFR3 (IC50 nM), FGFR3-BAIAP2L1 Ba/F3 cells, 48 hours, Cell Titer Glo 2.0
# In short: (§5)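 Viability read as ATP luminescence (CellTiter-Glo 2.0) after 48 h compound exposure, normalized to DMSO-treated cells and fitted with a 4-parameter curve for IC50. Cells: Ba/F3 dependent on FGFR1-BCR or FGFR3-BAIAP2L1 fusion kinase; top dose 30 μM, 10-fold steps, 9 doses in triplicate.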
# [8] = tested on: RT112/84 cells (FGFR3-fusion); test: RT112/84 cancer cell line cell viability assay (CellTiter-Glo 2.0); type: cell-based; details: Homo sapiens, 72 hours, Cell Titer Glo 2.0
# Description: as §2, §3, §4
# [9] = biological target: FGFR1-BCR Ba/F3 cells (Homo sapiens, UniProt P11362); test: Ba/F3 cell viability assay (CellTiter-Glo 2.0), FGFR1-BCR Ba/F3; type: cell-based; details: read-out: Ba/F3 Cells FGFR1 (IC50 nM), 48 hours, Cell Titer Glo 2.0
# In short: as §5
# FGFR3, sequence (P22607 23-806): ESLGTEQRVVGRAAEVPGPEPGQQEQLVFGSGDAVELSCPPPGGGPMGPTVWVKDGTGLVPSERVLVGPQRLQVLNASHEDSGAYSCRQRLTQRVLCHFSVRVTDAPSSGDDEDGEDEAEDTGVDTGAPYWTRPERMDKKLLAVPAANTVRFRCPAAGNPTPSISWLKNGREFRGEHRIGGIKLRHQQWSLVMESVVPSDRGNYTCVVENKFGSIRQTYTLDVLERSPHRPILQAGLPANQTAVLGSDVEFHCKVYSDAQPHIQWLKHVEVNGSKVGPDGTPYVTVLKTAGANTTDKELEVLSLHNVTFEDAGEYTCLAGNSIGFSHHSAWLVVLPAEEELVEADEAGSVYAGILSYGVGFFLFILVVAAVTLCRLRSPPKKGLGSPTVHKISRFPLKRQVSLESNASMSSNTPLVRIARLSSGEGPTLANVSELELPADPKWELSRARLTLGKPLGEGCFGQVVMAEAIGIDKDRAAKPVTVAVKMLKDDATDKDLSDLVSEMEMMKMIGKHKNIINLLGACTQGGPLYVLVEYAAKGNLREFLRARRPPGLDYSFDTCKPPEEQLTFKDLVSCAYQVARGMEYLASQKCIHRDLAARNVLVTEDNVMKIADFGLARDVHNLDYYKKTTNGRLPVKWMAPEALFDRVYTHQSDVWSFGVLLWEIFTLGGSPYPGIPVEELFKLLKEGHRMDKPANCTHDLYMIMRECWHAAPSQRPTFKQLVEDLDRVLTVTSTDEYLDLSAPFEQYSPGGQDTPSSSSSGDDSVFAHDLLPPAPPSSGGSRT
# FGFR3-BAIAP2L1 Ba/F3 cells, sequence (P22607 23-806 limits assumed, change not shown): as the sequence (P22607 23-806) above
# FGFR3 (V555M), sequence (P22607 23-806 V555M): as the sequence (P22607 23-806) above, with V533M counted along it
# FGFR2, sequence (P21802 22-821): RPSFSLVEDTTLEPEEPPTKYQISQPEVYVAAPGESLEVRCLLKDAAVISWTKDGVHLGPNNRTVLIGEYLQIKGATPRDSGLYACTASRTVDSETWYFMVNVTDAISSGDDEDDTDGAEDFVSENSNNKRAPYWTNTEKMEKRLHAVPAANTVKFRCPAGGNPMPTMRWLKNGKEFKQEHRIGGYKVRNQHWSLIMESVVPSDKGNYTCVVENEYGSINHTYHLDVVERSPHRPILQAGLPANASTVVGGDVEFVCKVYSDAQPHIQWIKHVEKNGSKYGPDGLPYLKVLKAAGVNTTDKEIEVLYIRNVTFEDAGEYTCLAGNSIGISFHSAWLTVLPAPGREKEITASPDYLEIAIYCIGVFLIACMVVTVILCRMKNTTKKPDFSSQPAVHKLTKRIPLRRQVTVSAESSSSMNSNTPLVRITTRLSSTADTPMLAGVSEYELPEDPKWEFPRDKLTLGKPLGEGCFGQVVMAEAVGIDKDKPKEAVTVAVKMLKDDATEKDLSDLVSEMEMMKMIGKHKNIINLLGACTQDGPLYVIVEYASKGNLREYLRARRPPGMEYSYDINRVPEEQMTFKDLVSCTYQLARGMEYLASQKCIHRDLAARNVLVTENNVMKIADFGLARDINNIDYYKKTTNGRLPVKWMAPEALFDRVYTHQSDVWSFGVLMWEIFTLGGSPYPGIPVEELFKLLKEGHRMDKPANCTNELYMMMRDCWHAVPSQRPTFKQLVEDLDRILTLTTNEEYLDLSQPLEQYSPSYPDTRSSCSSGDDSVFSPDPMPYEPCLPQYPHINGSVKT
# FGFR1-BCR Ba/F3 cells, sequence (P11362 22-822 limits assumed, change not shown): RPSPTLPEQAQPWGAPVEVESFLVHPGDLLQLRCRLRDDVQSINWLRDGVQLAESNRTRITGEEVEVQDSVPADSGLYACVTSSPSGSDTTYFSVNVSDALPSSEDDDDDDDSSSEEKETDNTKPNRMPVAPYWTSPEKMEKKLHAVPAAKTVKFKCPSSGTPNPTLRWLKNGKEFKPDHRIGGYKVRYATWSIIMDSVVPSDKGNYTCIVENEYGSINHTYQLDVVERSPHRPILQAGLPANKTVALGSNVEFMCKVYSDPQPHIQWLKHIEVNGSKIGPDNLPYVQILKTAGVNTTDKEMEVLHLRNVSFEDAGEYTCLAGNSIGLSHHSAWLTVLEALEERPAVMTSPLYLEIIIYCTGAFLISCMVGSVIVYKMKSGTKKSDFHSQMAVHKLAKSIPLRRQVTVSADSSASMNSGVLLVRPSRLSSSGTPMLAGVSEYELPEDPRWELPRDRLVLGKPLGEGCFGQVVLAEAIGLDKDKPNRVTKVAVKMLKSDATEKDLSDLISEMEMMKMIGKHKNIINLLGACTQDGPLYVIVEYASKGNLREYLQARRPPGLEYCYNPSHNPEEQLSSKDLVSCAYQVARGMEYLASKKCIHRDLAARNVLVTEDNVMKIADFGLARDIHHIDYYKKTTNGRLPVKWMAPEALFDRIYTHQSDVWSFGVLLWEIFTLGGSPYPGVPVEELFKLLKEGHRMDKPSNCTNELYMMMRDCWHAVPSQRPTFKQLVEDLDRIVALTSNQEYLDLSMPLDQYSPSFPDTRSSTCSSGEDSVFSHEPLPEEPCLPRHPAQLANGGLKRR
# FGFR1, sequence (P11362 22-822): as the sequence (P11362 22-822 limits assumed, change not shown) above
# FGFR4, sequence (P22455 22-802): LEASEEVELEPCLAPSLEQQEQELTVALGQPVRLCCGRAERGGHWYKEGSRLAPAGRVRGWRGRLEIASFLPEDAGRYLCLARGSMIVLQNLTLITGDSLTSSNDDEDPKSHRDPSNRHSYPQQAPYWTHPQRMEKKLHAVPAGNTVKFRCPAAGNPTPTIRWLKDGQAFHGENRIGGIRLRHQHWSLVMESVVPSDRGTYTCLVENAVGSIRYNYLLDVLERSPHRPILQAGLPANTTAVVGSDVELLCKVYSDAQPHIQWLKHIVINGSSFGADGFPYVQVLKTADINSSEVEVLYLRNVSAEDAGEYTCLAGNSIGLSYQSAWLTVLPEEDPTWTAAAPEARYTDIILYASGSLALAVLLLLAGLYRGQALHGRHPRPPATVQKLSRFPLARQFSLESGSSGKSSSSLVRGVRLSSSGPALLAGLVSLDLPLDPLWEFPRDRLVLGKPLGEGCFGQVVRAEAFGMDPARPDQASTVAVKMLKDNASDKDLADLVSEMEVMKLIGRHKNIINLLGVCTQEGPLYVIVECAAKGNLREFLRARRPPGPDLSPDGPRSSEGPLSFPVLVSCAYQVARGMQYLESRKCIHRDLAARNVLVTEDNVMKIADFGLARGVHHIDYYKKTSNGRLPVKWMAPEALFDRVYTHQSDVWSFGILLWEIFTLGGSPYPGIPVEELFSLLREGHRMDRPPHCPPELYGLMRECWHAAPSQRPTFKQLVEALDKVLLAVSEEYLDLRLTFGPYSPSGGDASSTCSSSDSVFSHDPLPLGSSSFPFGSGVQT
compound,measurement,setting,value
"C[C@@H](Oc1ccc2[nH]nc(-c3cnc(N4CCC5(CC4)CC(=O)NC5=O)nc3)c2c1)c1c(Cl)cncc1Cl [Example 50, 8-[5-[5-[(1R)-1-(3,5-dichloro-4-pyridyl)ethoxy]-1H-indazol-3-yl]pyrimidin-2-yl]-2,8-diazaspiro-[4,5]decane-1,3-dione]",Kd,[1],20 to 100 nM
same,Kd,[2],1 to 20 nM
same,Kd,[3],20 to 100 nM
same,Kd,[4],1 to 20 nM
same,Kd,[5],1 to 20 nM
same,IC50,[6],100 to 300 nM
same,Ba/F3 FGFR1/FGFR3 Selectivity,[7],16
same,IC50,[7],1 to 20 nM
same,IC50,[8],20 to 100 nM
same,IC50,[9],100 to 300 nM
"C[C@@H](Oc1ccc2[nH]nc(-c3cnn(C4CCN(C)CC4)c3)c2c1)c1c(Cl)cncc1Cl [Example 65, 5-[(1R)-1-(3,5-dichloro-4-pyridyl)ethoxy]-3-[1-(1-methyl-4-piperidyl)pyrazol-4-yl]-1H-indazole]",Kd,[1],1 to 20 nM
same,Kd,[2],1 to 20 nM
same,Kd,[3],1 to 20 nM
same,Kd,[4],1 to 20 nM
same,Kd,[5],1 to 20 nM
same,IC50,[6],20 to 100 nM
same,IC50,[7],1 to 20 nM
same,IC50,[8],1 to 20 nM
same,IC50,[9],20 to 100 nM
"C[C@@H](Oc1ccc2[nH]nc(-c3cnc(N4CCC5(CC4)CCS(=O)(=O)C5)c(F)c3)c2c1)c1c(Cl)cncc1Cl [Example 77, 8-[5-[5-[(1R)-1-(3,5-dichloro-4-pyridyl)ethoxy]-1H-indazol-3-yl]-3-fluoro-2-pyridyl]-2λ^6-thia-8-azaspiro[4.5]decane 2,2-dioxide]",Kd,[1],1 to 20 nM
same,Kd,[2],1 to 20 nM
same,Kd,[3],20 to 100 nM
same,Kd,[4],1 to 20 nM
same,Kd,[5],1 to 20 nM
same,IC50,[6],100 to 300 nM
same,Ba/F3 FGFR1/FGFR3 Selectivity,[7],14
same,IC50,[7],1 to 20 nM
same,IC50,[8],1 to 20 nM
same,IC50,[9],100 to 300 nM
"C[C@@H](Oc1ccc2[nH]nc(-c3cnn(C4CCN(C5COC5)CC4)c3)c2c1)c1c(Cl)cncc1Cl [Example 87, 5-[(1R)-1-(3,5-dichloro-4-pyridyl)ethoxy]-3-[1-[1-(oxetan-3-yl)-4-piperidyl]pyrazol-4-yl]-1H-indazole]",Kd,[1],1 to 20 nM
same,Kd,[2],20 to 100 nM
same,Kd,[3],1 to 20 nM
same,Kd,[4],1 to 20 nM
same,Kd,[5],1 to 20 nM
same,IC50,[6],20 to 100 nM
same,Ba/F3 FGFR1/FGFR3 Selectivity,[7],17
same,IC50,[7],1 to 20 nM
same,IC50,[8],1 to 20 nM
same,IC50,[9],20 to 100 nM
"C[C@@H](Oc1ccc2[nH]nc(-c3cnn([C@H]4CCNC4)c3)c2c1)c1c(Cl)cncc1Cl [Example 88, 5-[(1R)-1-(3,5-dichloro-4-pyridyl)ethoxy]-3-[1-[(3S)-pyrrolidin-3-yl]pyrazol-4-yl]-1H-indazole]",Kd,[1],1 to 20 nM
same,Kd,[2],20 to 100 nM
same,Kd,[3],1 to 20 nM
same,Kd,[4],1 to 20 nM
same,Kd,[5],1 to 20 nM
same,IC50,[6],100 to 300 nM
same,Ba/F3 FGFR1/FGFR3 Selectivity,[7],20
same,IC50,[7],1 to 20 nM
same,IC50,[8],20 to 100 nM
same,IC50,[9],100 to 300 nM
"Cc1ncc(Cl)c([C@@H](C)Oc2ccc3[nH]nc(-c4cnn(C5CCN(C(C)C)CC5)c4)c3c2)c1Cl [Example 93, 5-[(1R)-1-(3,5-dichloro-2-methyl-4-pyridyl)ethoxy]-3-[1-(1-isopropyl-4-piperidyl)pyrazol-4-yl]-1H-indazole]",Kd,[1],1 to 20 nM
same,Kd,[2],20 to 100 nM
same,Kd,[3],1 to 20 nM
same,Kd,[4],1 to 20 nM
same,Kd,[5],1 to 20 nM
same,IC50,[6],100 to 300 nM
same,Ba/F3 FGFR1/FGFR3 Selectivity,[7],11
same,IC50,[7],20 to 100 nM
same,IC50,[8],1 to 20 nM
same,IC50,[9],100 to 300 nM
"Cc1ncc(Cl)c([C@@H](C)Oc2ccc3[nH]nc(-c4cnn(C5CCN(C6COC6)CC5)c4)c3c2)c1Cl [Example 94, 5-[(1R)-1-(3,5-dichloro-2-methyl-4-pyridyl)ethoxy]-3-[1-[1-(oxetan-3-yl)-4-piperidyl]pyrazol-4-yl]-1H-indazole]",Kd,[1],20 to 100 nM
same,Kd,[2],20 to 100 nM
same,Kd,[3],1 to 20 nM
same,Kd,[4],1 to 20 nM
same,Kd,[5],1 to 20 nM
same,IC50,[6],100 to 300 nM
same,Ba/F3 FGFR1/FGFR3 Selectivity,[7],11
same,IC50,[7]; given as a number,15 nM
same,IC50,[8],1 to 20 nM
same,IC50,[9],100 to 300 nM
"Cc1ncc(Cl)c([C@@H](C)Oc2ccc3[nH]nc(-c4cnn(C5CCN(C6CCC6)CC5)c4)c3c2)c1Cl [Example 95, 3-[1-(1-cyclobutyl-4-piperidyl)pyrazol-4-yl]-5-[(1R)-1-(3,5-dichloro-2-methyl-4-pyridyl)ethoxy]-1H-indazole]",Kd,[1],1 to 20 nM
same,Kd,[2],20 to 100 nM
same,Kd,[3],1 to 20 nM
same,Kd,[4],1 to 20 nM
same,Kd,[5],1 to 20 nM
same,IC50,[6],100 to 300 nM
same,Ba/F3 FGFR1/FGFR3 Selectivity,[7],14
same,IC50,[7],20 to 100 nM
same,IC50,[8],20 to 100 nM
same,IC50,[9],> 300 nM
"C[C@@H](Oc1ccc2[nH]nc(-c3ccc(N4CC5(CCN5C)C4)nc3)c2c1)c1c(Cl)cncc1Cl [Example 96, 5-[(1R)-1-(3,5-dichloro-4-pyridyl)ethoxy]-3-[6-(1-methyl-1,6-diazaspiro[3.3]heptan-6-yl)-3-pyridyl]-1H-indazole]",Kd,[1],1 to 20 nM
same,Kd,[2],1 to 20 nM
same,Kd,[3],1 to 20 nM
same,Kd,[4],1 to 20 nM
same,Kd,[5],1 to 20 nM
same,IC50,[6],20 to 100 nM
same,Ba/F3 FGFR1/FGFR3 Selectivity,[7],13
same,IC50,[7],1 to 20 nM
same,IC50,[8],1 to 20 nM
same,IC50,[9],20 to 100 nM
"C[C@@H](Oc1ccc2[nH]nc(-c3ccc(N4CCC5(CC4)CN(C)CC(=O)N5)nc3)c2c1)c1c(Cl)cncc1Cl [Example 97, 9-[5-[5-[(1R)-1-(3,5-dichloro-4-pyridyl)ethoxy]-1H-indazol-3-yl]-2-pyridyl]-4-methyl-1,4,9-triazaspiro[5.5]undecan-2-one]",Kd,[1],1 to 20 nM
same,Kd,[2],1 to 20 nM
same,Kd,[3],1 to 20 nM
same,Kd,[4],1 to 20 nM
same,Kd,[5],1 to 20 nM
same,IC50,[6],20 to 100 nM
same,Ba/F3 FGFR1/FGFR3 Selectivity,[7],15
same,IC50,[7],1 to 20 nM
same,IC50,[8],1 to 20 nM
same,IC50,[9],20 to 100 nM
"C[C@@H](Oc1ccc2[nH]nc(-c3ccc(N4CCC5(CC4)CN(C)CC(=O)N5C)nc3)c2c1)c1c(Cl)cncc1Cl [Example 98, 9-[5-[5-[(1R)-1-(3,5-dichloro-4-pyridyl)ethoxy]-1H-indazol-3-yl]-2-pyridyl]-1,4-dimethyl-1,4,9-triazaspiro[5.5]undecan-2-one]",Kd,[1],1 to 20 nM
same,Kd,[2],1 to 20 nM
same,Kd,[3],1 to 20 nM
same,Kd,[4],1 to 20 nM
same,Kd,[5],1 to 20 nM
same,IC50,[6],20 to 100 nM
same,Ba/F3 FGFR1/FGFR3 Selectivity,[7],24
same,IC50,[7],1 to 20 nM
same,IC50,[8],1 to 20 nM
same,IC50,[9],20 to 100 nM
"C[C@@H](Oc1ccc2[nH]nc(-c3cnn(C4CCOCC4)c3)c2c1)c1c(Cl)cncc1Cl [Example 106, 5-[(1R)-1-(3,5-dichloro-4-pyridyl)ethoxy]-3-(1-tetrahydropyran-4-ylpyrazol-4-yl)-1H-indazole]",Kd,[1],1 to 20 nM
same,Kd,[2],1 to 20 nM
same,Kd,[3],1 to 20 nM
same,Kd,[4],1 to 20 nM
same,Kd,[5],1 to 20 nM
same,IC50,[6],100 to 300 nM
same,Ba/F3 FGFR1/FGFR3 Selectivity,[7],11
same,IC50,[7],1 to 20 nM
same,IC50,[8],1 to 20 nM
same,IC50,[9],100 to 300 nM
"Cc1ncc(Cl)c([C@@H](C)Oc2ccc3[nH]nc(-c4ccc(N5CC6(C5)CN(S(C)(=O)=O)C6)nc4)c3c2)c1Cl [Example 107, 5-[(1R)-1-(3,5-dichloro-2-methyl-4-pyridyl)ethoxy]-3-[6-(2-methylsulfonyl-2,6-diazaspiro[3.3]heptan-6-yl)-3-pyridyl]-1H-indazole]",Kd,[1],20 to 100 nM
same,Kd,[2],1 to 20 nM
same,Kd,[3],20 to 100 nM
same,Kd,[4],1 to 20 nM
same,Kd,[5],1 to 20 nM
same,IC50,[6],100 to 300 nM
same,Ba/F3 FGFR1/FGFR3 Selectivity,[7],16
same,IC50,[7],1 to 20 nM
same,IC50,[8],20 to 100 nM
same,IC50,[9],100 to 300 nM

# Source: patent US20240109865A1, “INDAZOLE COMPOUNDS AS KINASE INHIBITORS” (TYRA BIOSCIENCES, INC., priority 2020, published 2024)
